Data set [1] deals with human colorectal adenocarcinoma HT-29 cells. Nature of the data set: MTS assay, cell viability of HT-29 cells. The class given is cell-based. The conditions noted are these: 0–20 μM, 24 h. The procedure: (§1) The museum tetraploid strain of murine ascite Ehrlich carcinoma cells from the All-Russian Oncology Center (Moscow, Russia) was used. The cells were separated from the ascites, which were collected on day 7 after inoculation in mouse CD-1 line. The cells were washed of the ascites triply and resuspended in RPMI-1640 medium containing 8 μg/mL gentamicin (BioloT, St-Petersburg, Russia). Neuroblastoma Neuro 2A cells were cultured in DMEM medium containing 10% fetal bovine serum (FBS), (BioloT, St-Petersburg, Russia) and normal epithelial JB-6 cells were cultured in DMEM medium containing 5% fetal bovine serum (FBS), (BioloT, St-Petersburg, Russia) and 1% penicillin/streptomycine (Invitrogen). The HT-29 (ATCC # HTB-38) human colon cancer cell line was grown in monolayer in McCoy’s 5A medium supplemented with 10% (v/v) heat-inactivated FBS, 2 mM L-glutamine, and 1% penicillin-streptomycin in a humidified atmosphere containing 5% CO2. Cells were maintained in a sterile environment and kept in an incubator at 5% CO2 and 37 °C to promote growth. HT-29 cells were sub-cultured every 3–4 days by rinsing with phosphate buffered saline (PBS), adding trypsin to detach the cells from the tissue culture flask, and transferring 10%–20% of the harvested cells to a new flask containing fresh growth media.
The HT-29 cells (1.0 × 10^4/well) were seeded in 96-well plates for 24 h at 37 °C in 5% CO2 incubator. The cells were treated with the tested substances at concentrations range from 0 to 20 μM for an additional 24 h. Subsequently, cells were incubated with 15 μL MTS reagent for 3 h and the absorbance in each well was measured at 490/630 nm using microplate reader “Power Wave XS” (Bio Tek, Winooski, VT, USA). All the experiments were repeated three times, and the mean absorbance values were calculated. The results are expressed as the percentage of inhibition that produced a reduction in absorbance by compound’s treatment compared to the non-treated cells (control).
A general note: Formazan colour is commonly taken as a measure of viable cells.

The test system is the same in data set [2]. Nature of the data set: Soft agar assay, colony formation and growth of HT-29 cells. The conditions noted are these: 0–10 μM, 14 days, read-out: Soft Agar Assay ICCF50 (inhibition of colony formation). The class given is cell-based. The procedure: as §1
The HT-29 cells (8.0 × 10^3) were seeded in 6-well plate and treated with the tested compounds at concentrations range 0–10 μM in 1 mL of 0.3% Basal Medium Eagle (BME) agar containing 10% FBS, 2mM L-glutamine, and 25 μg/mL gentamicin. The cultures were maintained at 37 °C in a 5% CO2 incubator for 14 days, and the cell’s colonies were scored using a microscope “Motic AE 20” (Scientific Instrument Company, Campbell, CA, USA) and the Motic Image Plus version 2.0 (Scientific Instrument Company, Campbell, CA, USA) computer program.

Data set [3] concerns ascite form of mouse Ehrlich carcinoma cells. Nature of the data set: Cytotoxic activity against ascite form of mouse Ehrlich carcinoma cells (nonspecific esterase / MTT assay). The class given is cell-based. The method, then: as §1
(§2) Cytotoxic activity against ascite form of mouse Ehrlich carcinoma cells was investigated by nonspecific esterase activity assay. In total, 10µL of the test substance solution and 100 μL of the cell suspension were placed into each well of a 96-well microplate. The plate was incubated in a CO2 incubator at 37 °C for 1 or 24 h. A stock solution of the probe fluorescein diacetate (FDA; Sigma, St. Louis, MO, USA) in DMSO (1 mg/mL) was prepared. After incubation of the cells with test compounds, 10 μL of FDA solution (50 μg/mL) was added to each well and the plate was incubated at 37 °C for 15 min. Cells were washed with PBS, and fluorescence was measured with a Fluoroskan Ascent plate reader (Thermo Labsystems, Helsinky, Finland) at λex = 485 nm and λem = 518 nm. All experiments were repeated in triplicate. Cytotoxic activity was expressed as the percent of cell viability. Nonspecific esterase activity assay has been used for determination of cytotoxicity against neuroblastoma Neuro 2A and normal epithelial JB-6 cells.
(§3) The solutions of tested substances in different concentrations (20 µL) and cell suspension (200 µL) were added in wells of 96-well plate and incubated over night at 37 °C and 5% CO2. After incubation, the cells were sedimented by centrifugation, 200 µL of medium from each well were collected, and 100 µL of pure medium were added. Then, 10 µL of MTT solution […] (Sigma, St. Louis, MO, USA) were added in each well. The plate was incubated for 4 h, after which 100 µL SDS-HCl were added to each well, and the plate was incubated at 37 °C for 4–18 h. Optical density was measured at 570 nm and 630–690 nm. Cytotoxic activity of the substances was calculated as the concentration that caused 50% metabolic cell activity inhibition (IC50). The MTT assay has been used for determination of cytotoxic activity against Ehrlich carcinoma cells.

Data set [4] has as its system normal epithelial JB-6 cells. Nature of the data set: Cytotoxicity against normal epithelial JB-6 cells (nonspecific esterase activity assay). The class given is cell-based, mouse. The conditions noted are these: normal epithelial JB-6 cells. The procedure: as §1, §2
The subject of data set [5] is mouse neuroblastoma Neuro 2A cells. Nature of the data set: Cytotoxicity against neuroblastoma Neuro 2A cells (nonspecific esterase activity assay). The format is cell-based. The conditions noted are these: mouse neuroblastoma Neuro 2A cells. The procedure: as §1, §2
In another data set the test system is mouse erythrocytes. Nature of the data set: Hemolytic activity against mouse erythrocytes. The class given is cell-based. The procedure: (§4) Blood was taken from CD-1 mice (18–20 g). The mice were anesthetized with diethyl ether, their chests were rapidly opened, and blood was collected in cold (4 °C) 10 mM phosphate-buffered saline, pH 7.4 (PBS) without anticoagulant. Erythrocytes were washed 3 times in PBS using at least 10 vol. of washing solution by centrifugation (2000 rpm) for 5 min. Erythrocytes were used at a concentration that provided an optical density of 1.0 at 700 nm for a non-hemolyzed sample. Then, 20 μL of a water solution of test substance with a fixed concentration was added to a well of a 96-well plate containing 180 μL of the erythrocyte suspension. Erythrocyte suspension was incubated with substances for 24 h at 37 °C. After that, the optical density of the obtained solutions was measured and ED50 for hemolytic activity of each compound was calculated.

Data set [6] is described as follows: Cytotoxic activity against ascite form of mouse Ehrlich carcinoma cells (nonspecific esterase / MTT assay). The class given is cell-based. The conditions noted are these: ascite form of mouse Ehrlich carcinoma cells; read-out: Cytotoxicity EC50, Ehrlich carcinoma. The procedure: as §1, §2, §3
Data set [7] is described as follows: Cytotoxicity against normal epithelial JB-6 cells (nonspecific esterase activity assay). The class given is cell-based, mouse. The conditions noted are these: mouse, normal epithelial JB-6 cells. The method, then:
as §1, §2

Data set [8] in a line: Cytotoxicity against neuroblastoma Neuro 2A cells (nonspecific esterase activity assay). The class given is cell-based, mouse. The conditions noted are these: mouse neuroblastoma Neuro 2A cells. The method, then:
as §1, §2

The nature of data set [9]: Hemolytic activity against mouse erythrocytes. The format is cell-based. The conditions noted are these: CD-1, mouse erythrocyte suspension, pH 7.4, 24 h at 37 °C, read-out: Cytotoxicity EC50, Erhythrocytes (hemolytic activity). The method, then:
as §4

Experimental findings from publication PMC6627558, “Structures and Bioactivities of Six New Triterpene Glycosides, Psolusosides E, F, G, H, H1, and I and the Corrected Structure of Psolusoside B from the Sea Cucumber Psolus fabricii” (Marine Drugs, 2019) are described below.

Counter-ions that a name gives are not always drawn.

In general, EC50 refers to the concentration that produces a half-maximal response. `C=C(C)CCC[C@]1(C)OC(=O)[C@]23CC=C4[C@@H](CC[C@H]5C(C)(C)[C@@H](O[C@@H]6OC[C@@H](O)[C@H](O)[C@H]6O[C@@H]6O[C@H](C)[C@@H](O[C@@H]7O[C@H](COS(=O)(=O)[O-])[C@@H](O)[C@H](O[C@@H]8O[C@H](COS(=O)(=O)[O-])[C@@H](O)[C@H](OC)[C@H]8O)[C@H]7O)[C@H](O)[C@H]6O)CC[C@]45C)[C@]2(C)CC(=O)[C@@H]31.[Na+].[Na+]` [Psolusoside A, 3β-O-[6-O-sodium sulfate-3-O-methyl-β-D-glucopyranosyl-(1→3)-6-O-sodium-sulfate-β-D-glucopyranosyl-(1→4)-β-D-quinovopyranosyl-(1→2)-β-D-xylopyranosyl]-16-ketoholosta-9(11),25-diene, reference compound]: the IC50 is > 20 µM in data set [1] and > 10 µM in [2]. Also, the “cytotoxic action against mouse Ehrlich carcinoma cells (in words)” value in data set [3] (ascite form) is recorded as “moderate cytotoxic action”. Also, the EC50 in data set [3] (ascite form of mouse Ehrlich carcinoma cells, read-out: Cytotoxicity EC50, Ehrlich carcinoma) is 30.9 µM; in data set [4], 7.5 µM; in [5], 2.9 µM; with mouse erythrocytes (24 h at 37 °C, read-out: Cytotoxicity EC50, Erhythrocytes (hemolytic activity)), 1.4 µM.
For the compound `C=C(C)CCC[C@]1(C)OC(=O)[C@]23CC[C@@H]4C(=CC[C@H]5C(C)(C)[C@@H](O[C@@H]6OC[C@@H](O[C@@H]7O[C@H](COS(=O)(=O)O)[C@@H](O)[C@H](O)[C@H]7O)[C@H](O)[C@H]6O[C@@H]6OC[C@@H](O[C@@H]7O[C@H](COS(=O)(=O)O)[C@@H](O)[C@H](O)[C@H]7O)[C@H](O)[C@H]6O)CC[C@]45C)[C@]2(C)C[C@H](OC(C)=O)[C@@H]31` [Psolusoside I (7), 3β-O-{6-O-sodium sulfate-β-D-glucopyranosyl-(1→4)-β-D-xylopyranosyl-(1→2)-[6-O-sodium sulfate-β-D-glucopyranosyl-(1→4)]-β-D-xylopyranosyl}-16β-acetoxyholosta-7,25-diene], the IC50 in [1] (Homo sapiens) is > 20 µM; in [2] (Homo sapiens, 336 h), 10 ± 0.4 µM. Moreover, the EC50 in [6] came to 87.4 µM; in [7] it was 37.2 µM; in data set [8] it was 26.8 µM. Further, the EC50 at 24 h in data set [9] was found to be 18.3 µM. The “hemolytic activity (in words)” value with mouse erythrocytes is “moderate hemolytic activity”.
